Measured values published in article PMC3934827 (Neuropharmacology, 2014).
Where two headings read alike, the source gives them in different places.

What was measured:
stability and balance = test: Perch test; format: in vivo, Rhesus monkeys (Macaca mulatta); conditions: MP-10 0.21 or 0.67 mg/kg s.c.
[1] = system: finger dexterity / fast hand movements; test: Klüver Board test; format: in vivo, Rhesus monkeys (Macaca mulatta)
psychotic symptoms = conditions: ref DeMartinis, 2012, cited from earlier work
[2] = rat; ref Schmidt et al, 2008; cited from earlier work
[3] = mouse; ref Verhoest et al, 2009; cited from earlier work
brain [18F] FDG uptake = test: [18F] Fluorodeoxyglucose-PET imaging of brain; format: in vivo, Rhesus monkeys (Macaca mulatta)
[4] = system: parkinsonian motor effects; test: Standardized motor disability scale for parkinsonian primates; format: in vivo, Rhesus monkeys (Macaca mulatta)
[5] = system: cortical-, extrapyramidal motor- and autonomic-mediated functions; test: Drug Effects on Nervous System
[6] = Plasma levels of MP-10 after subcutaneous administration; conditions: rhesus monkey, sc
[7] = system: blood-brain barrier efflux transporters; conditions: ref Verhoest et al, 2009; cited from earlier work
PDE10A = test: Estimated PDE10A target occupancy; format: in vivo, Rhesus monkeys (Macaca mulatta); conditions: calculated from Cp,u with IC50 1.0 nM
D2 receptor = conditions: ref Olsen et al., 2008; cited from earlier work
[8] = MP-10 doses up to 0.21 mg/kg s.c.
[9] = MP-10 0.67 and 1.33 mg/kg s.c., p < 0.001
[10] = risperidone 0.032 and 0.1 mg/kg s.c.

Cn1cc(-c2ccncc2)c(-c2ccc(OCc3ccc4ccccc4n3)cc2)n1 [MP-10, 2-[4-(1-methyl-4-pyridin-4-yl-1H-pyrazol-3-yl)-phenoxymethyl]-quinoline]
Perch test performance (stability and balance): did not show any compromise | Perch test scores before and 90 min after injection (stability and balance): zero | Klüver board task performance ([1]; MP-10 0.67 and 1.33 mg/kg s.c.): failed to perform the task | Klüver board index of success [1, 8]: no effect | Klüver board action time ([1]; MP-10 doses up to 0.21 mg/kg s.c., 90 min after injection): no effect | primary endpoint: reduction in psychotic symptoms (psychotic symptoms; Phase 2A trial NCT01175135): did not meet the primary endpoint | adverse effects in Phase 2A trial (psychotic symptoms): sedation and side effects consistent with target engagement | brain-to-plasma ratio (total brain-to-total plasma concentrations) [2]: ~ 0.9 | brain-to-plasma ratio (total brain-to-total plasma concentrations) [3]: ~ 0.9 | SUV of [18F] FDG in striatal regions (pooled) vs vehicle (brain [18F] FDG uptake; MP-10 0.211 or 1.33 mg/kg s.c., p < 0.01, n=4): statistically significant increases | SUV of [18F] FDG in cortical regions (pooled) vs vehicle (brain [18F] FDG uptake; MP-10 0.211 or 1.33 mg/kg s.c., p < 0.02, n=4): statistically significant increases | FDG SUV in other brain regions relative to control (vehicle) (brain [18F] FDG uptake; two doses of MP-10 (0.21, 1.33 mg/kg s.c.)): No significant differences | global motor disability scores ([4]; MP-10 0.021, 0.067, or 0.21 mg/kg s.c., 3 hours after administration): no effect | social interaction ([4]; MP-10 0.67 and 1.33 mg/kg s.c., similar at both doses, p < 0.001): decrease in social interaction | impairment in hand movements [4, 9]: mild and similar at both doses | impairment in leg movements [4, 9]: mild and similar at both doses | mobility score [4, 9]: increased in a dose dependent fashion | posture score [4, 9]: increased in a dose dependent fashion | global motor disability scores ([4]; MP-10 0.67 and 1.33 mg/kg s.c., p < 0.001, 3 of the 4 monkeys): increase in global scores | DENS attentiveness [5, 9]: decreased attentiveness | DENS involuntary movements [5, 9]: induced oral dyskinesias | DENS reactivity [5, 9]: decreased attentiveness and reactivity | total DENS scores [5, 9]: significant effects | DENS involuntary movements [5, 8]: no effect | DENS salivation ([5]; MP-10 s.c.): non-significant increases | Tmax [6]: 1 to 2 h | substrate for blood-brain barrier efflux transporters [7]: no evidence that it is a substrate | projected PDE10A target occupancy (PDE10A; 0.21 mg/kg s.c., 1 h): 16 ± 1% | projected PDE10A target occupancy (PDE10A; 0.21 mg/kg s.c., 2 h): 19 ± 3% | projected PDE10A target occupancy (PDE10A; 0.21 mg/kg s.c., 3 h): 17 ± 1% | projected PDE10A target occupancy (PDE10A; 0.67 mg/kg s.c., 1 h): 41 ± 5% | projected PDE10A target occupancy (PDE10A; 0.67 mg/kg s.c., 2 h): 47 ± 2% | projected PDE10A target occupancy (PDE10A; 0.67 mg/kg s.c., 3 h): 42 ± 3%

Cc1nc2n(c(=O)c1CCN1CCC(c3noc4cc(F)ccc34)CC1)CCCC2 [risperidone, reference compound]
Klüver board action time, baseline vs 90 min ([1]; risperidone 0.01 mg/kg s.c.): No significant differences | Klüver board action time ([1]; risperidone 0.032 and 0.1 mg/kg s.c., at cut off): 60 s | motor disability scores (motor behavior) ([4]; risperidone 0.01 mg/kg s.c., 3 hours after administration): no effect | hand movement score, in comparison to MP-10 [4, 10]: greater, dose-dependent increases | leg movement score, in comparison to MP-10 [4, 10]: greater, dose-dependent increases | mobility score, in comparison to MP-10 [4, 10]: notably less effect | posture score, in comparison to MP-10 [4, 10]: roughly comparable increases | motor disability scores ([4]; risperidone 0.032 and 0.1 mg/kg s.c., dose- and time-dependent, p < 0.001): significant increases | behaviors scored using the DENS scale ([5]; risperidone 0.01 mg/kg s.c.): minimal effects | DENS involuntary movements ([5]; risperidone 0.032 mg/kg s.c., all monkeys): significant involuntary movements | intensity of involuntary movements ([5]; risperidone 0.1 mg/kg s.c. vs 0.032 mg/kg): further increased | DENS attentiveness, compared with MP-10 ([5]; risperidone s.c.): less impairment | DENS reactivity, compared with MP-10 ([5]; risperidone s.c.): less impairment | D2 receptor TO at which antipsychotic efficacy is observed (D2 receptor): > 55%
